Measurements reported in US8283479B2, “CXCR2 inhibitors” (Sanofi-Aventis Deutschland GmbH, priority 2004, dated 2012).

Target: T1, human CXCR2 (Homo sapiens, UniProt P25025)
T1 construct: expressed in transfected cells; host or cells: CHO-K1
T1 sequence (P25025 1-360): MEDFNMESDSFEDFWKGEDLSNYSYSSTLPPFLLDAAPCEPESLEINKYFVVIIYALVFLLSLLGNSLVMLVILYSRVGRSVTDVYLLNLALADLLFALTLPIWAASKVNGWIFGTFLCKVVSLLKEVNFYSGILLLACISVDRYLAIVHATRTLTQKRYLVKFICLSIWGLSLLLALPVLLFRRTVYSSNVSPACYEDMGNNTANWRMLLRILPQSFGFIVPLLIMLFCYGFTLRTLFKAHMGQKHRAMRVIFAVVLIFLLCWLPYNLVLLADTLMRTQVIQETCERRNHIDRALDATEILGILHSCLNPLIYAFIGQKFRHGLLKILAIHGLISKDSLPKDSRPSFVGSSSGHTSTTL
Test: CXCR2 inhibition: calcium fluorescence assay (FLIPR)
Type: cell-based
Details: CHO-K1 cells stably transfected with human CXCR2 and Gα16; Fluo-4; % inhibition of calcium response to chemokine (10-100 nM)
Excerpt: Determination of CXCR2 Inhibition: Calcium Fluorescence Assay (FLIPR)
The assay is based on the detection of intracellular calcium changes detected by the selective, calcium-chelating dye, Fluo-4 (Molecular Probes). A large fluorescence intensity increase is observed upon calcium association with Fluo-4. The dye is delivered to the cell interior using an acetoxymethylester form of Fluo-4, where the intracellular esterase activity results in the charged species being released and trapped within the cytoplasm of the cell. […] By co-expressing the CXCR2 receptor and the promiscuous Gα16 protein, activation of this chemokine receptor is directed into this phospholipase C cascade resulting in intracellular calcium mobilization.
The CHO—K1 cells stably transfected with human CXCR2 and the promiscuous Gα16 protein were maintained in a log phase of growth at 37° C. and 5% CO2 in the following media: Iscove's, 10% FBS, 1× Penicillin-Streptomycin, 400 μg/mL G418 and 350 μg/mL Zeocin. Approximately 24-48 hours prior to the assay, 20,000-30,000 cells/well were plated onto a 96-well black/clear bottomed assay plate (Becton Dickinson) with a well volume of 180 μl. For dye-loading the culture medium was carefully removed and replaced by 100 μl/well dye solution (4 μM Fluo-4 in 135 mM NaCl, 5 mM KCl, 1 mM magnesium sulphate, 5 mM glucose, 20 mM Hepes, 2.5 mM probenecid; pH 7.4). Cells were incubated for 1 h at 37° C., and then washed 3× with buffer. After washing 90 μl buffer/well were left. Increasing concentrations of compound was added in 45 μl buffer (4× concentrated) followed by 10 min incubation at 37° C. Then the chemokine (10-100 nM) was applied in 45 μl buffer (4× concentrated) and the measurement performed for 2 min. The IC50 value of a compound was determined by calculation of % inhibition of total calcium response to the chemokine.

Row | IC50 [nM] | SMILES
1 | 3210 | CC(C)(NC(=O)c1ccc2ccccc2c1OCc1ccc2nonc2c1)C(=O)O [Example 5, 2-{[1-(Benzo[1,2,5]oxadiazol-5-ylmethoxy)-naphthalene-2-carbonyl]-amino}-2-methyl-propionic acid]
2 | 972 | CC(C)(NC(=O)c1cc(Br)c2ccccc2c1OCc1ccc(OC(F)(F)F)cc1)C(=O)O [Example 42, 2-{[4-Bromo-1-(4-trifluoromethoxy-benzyloxy)-naphthalene-2-carbonyl]-amino}-2-methyl-propionic acid]
3 | 980 | CCC(C)(NC(=O)c1ccc2ccccc2c1OCc1cc2ccccc2s1)C(=O)O (centres unmarked) [Example 74, 2-{[1-(Benzo[b]thiophen-2-ylmethoxy)-naphthalene-2-carbonyl]-amino}-2-methyl-butyric acid]
4 | 1620 | CCC(C)(NC(=O)c1ccc2ccccc2c1OCc1ccc(OC(F)(F)F)c(Cl)c1)C(=O)O (centres unmarked) [Example 105, 2-{[1-(3-Chloro-4-trifluoromethoxy-benzyloxy)-naphthalene-2-carbonyl]-amino}-2-methyl-butyric acid]
5 | 700 | CC(NC(=O)c1ccc2ccccc2c1OCc1ccc(C(F)(F)F)cc1)C(=O)O (centres unmarked) [Example 110, 2-{[1-(4-Trifluoromethyl-benzyloxy)-naphthalene-2-carbonyl]-amino}-propionic acid]
6 | 4440 | CC(C)(NC(=O)c1sc2ccccc2c1OCc1ccc(C(F)(F)F)nc1)C(=O)O [Example 120, 2-Methyl-2-{[3-(6-trifluoromethyl-pyridin-3-ylmethoxy)-benzo[b]thiophene-2-carbonyl]-amino}-propionic acid]
7 | 996 | O=C(NC1(C(=O)O)CCCC1)c1ccc2ccccc2c1OCc1ccc(C(F)(F)F)cc1 [Example 127, 1-{[1-(4-Trifluoromethyl-benzyloxy)-naphthalene-2-carbonyl]-amino}-cyclopentanecarboxylic acid]
8 | 200 | CC(C)C(C)(NC(=O)c1sc2ccccc2c1OCc1ccc(C(F)(F)F)cc1)C(=O)O (centres unmarked) [Example 131, 2,3-Dimethyl-2-{[3-(4-trifluoromethyl-benzyloxy)-benzo[b]thiophene-2-carbonyl]-amino}-butyric acid]
